Measurements as given in patent US6607885B1, “Method for high-density microarray medicated gene expression profiling” (priority 1999, dated 2003).

Tests used:
Type in all cases: cell-based, Escherichia coli
E. coli MG1655 = assay: IPTG induction, micro-array gene expression profiling
Experimental: E. coli MG1655 was cultured with aeration in either the minimal medium, M9 (Miller, J. H., Experiments in Molecular Genetics, Cold Spring Harbor (1972)), supplemented with 0.4% glucose or in the rich medium, LB (Miller, J. H., Experiments in Molecular Genetics, Cold Spring Harbor (1972)), at 37° C. The overnight culture was diluted 250 fold into fresh medium and aerated by shaking at 37° C. Samples of the minimal medium culture were harvested at A600=0.40 (exponential phase) and 1.6 (transition to stationary phase) prior to RNA isolation. An IPTG induction (Miller, J. H., Experiments in Molecular Genetics, Cold Spring Harbor (1972)) was performed to examine the specificity with which it effects gene expression. A culture grown overnight in LB at 37° C. was diluted 250 fold into fresh LB and aerated at 37° C. When the culture achieved an appropriate density (A600=0.40), it was split. To one portion was added IPTG to a final concentration of 1 mM; the untreated sample served as a control. Incubation of both samples was continued with aeration at 37° C. for another 15 min (A600=0.45 for both cultures) before RNA isolation was initiated.
RNA Isolation. An equivalent volume of shaved ice was added to 50 mL samples which were pelleted immediately in a refrigerated centrifuge by spinning at 10,410×g for 2 min. Each resultant pellet was resuspended in a mixture containing 100 μL of Tris HCl (10 mM, pH 8.0) and 350 μL of β-mercaptoethanol supplemented RLT buffer [Qiagen RNeasy Mini Kit, Valencia, Calif.]. The cell suspension was added to a chilled 2 mL screwed-capped microfuge tube containing 100 μL of 0.1 mm zirconia/silica beads (Biospec Product Inc., Bartlesville, Okla.). The cells were broken by agitation at room temperature for 25 sec with a Mini-Beadbeater™ (Biospec Products Inc., Bartlesville, Okla.). Debris was pelleted by centrifugation for 3 min at 16,000×g and 4° C.; the resultant supernatant was mixed with 250 μL of ethanol. This mixture was loaded onto a column from the Qiagen RNeasy Mini Kit. RNA isolation was completed using the protocol supplied with this kit. Incubation for 1 hr. at 37° C. in 40 mM Tris pH 8.0, 10 mM NaCl, 6 mM MgCl2 with RNase free RQ1 DNase (1 unit/μL, Promega, Madison, Wis.) digested any genomic DNA contaminating the RNA preparation. The digestion products were purified by a second passage through the RNeasy protocol (Qiagen, Valencia, Calif.). The product was eluted from the column in 50 μL RNAse-free water prior to determining sample concentration by an A260 reading. RNA preparations were stored frozen at either −20 or −80° C.
Synthesis of fluorescent cDNA from total RNA. Six microgram of RNA template and 12 μg of random hexamer primers (Operon Technologies, Inc., Alameda, Calif.) were diluted with double distilled (dd) water to a volume of 22 μL. Annealing was accomplished by incubation at 70° C. for 10 min followed by 10 min at room temperature. In order were added: 8 μL of 5×SuperScript II reaction buffer (Life Technologies, Inc., Gaithersberg, Md.), 4 μL of 0.1 M DTT, 2 μL of the dNTP mix (2 mM dATP, 2 mM dGTP, 2 mM TTP, 1 mM dCTP), 2 μL of 0.5 mM Cy3- or Cy5-dCTP (Amersham Pharmacia Biotech, Arlington Heights, Ill.), and 2 μL of SuperScript II reverse transcriptase ([…], Life Technologies Inc., Gaithersberg, Md.). DNA synthesis proceeded at 42° C. for 2.5 hr. before the reaction was terminated by heating at 94° C. for 5 min. Alkaline hydrolysis of the RNA templates was achieved by adding 2 μL of 5M NaOH followed by incubation at 37° C. for 10 min. Hydrolysis was terminated by the sequential addition of 3 μL of 5M HCl and 5 μL of 1M Tris-HCl, pH 6.8. The labeled cDNA was purified with a PCR purification kit (Qiagen, Valencia, Calif.), dried in a speed vacuum and stored at −20° C. Labeling efficiency was monitored using either A550, for Cy3 incorporation, or A650, for Cy5 labeling, to A260 ratios.
Hybridization and washing. […]

E. coli strain MG1655 = assay: MMC exposure, gene expression profile of MG1655
Experimental: (§1) Strains E. coli strain, MG1655, was used to determine the gene expression profile of E. coli in response to a MMC challenge. Two isogenic E. coli strains (Mount et al, J. Bacteriol. 112:886-893 (1972)), DM800 (lexA^+), used as control displaying a normal response to DNA damage, and DM803 (lexA^ind), a strain unable to mount the predominant “SOS” response to DNA damage, were compared using comprehensive gene expression profiling.
(§2) MMC experiment MG1655 cells were grown in LB overnight with aeration. The overnight cultures were diluted 100 fold in LB to final volume of 500 mL and grown at 37° C. to exponential phase. 200 mL of culture was treated with MMC to the final concentration of 250 ng/mL. Another 200 mL of culture were mock treated without MMC for comparison. Cells were harvested at 15 min and 40 min for MG1655 strain. With DM800 and DM803 stains, cells, cultured in an identical manner, were harvested after 40 min exposure. RNA was isolated and gene expression profile was analyzed as shown in Examples 1 and 2.

E. coli DM800 (lexA+) = assay: MMC exposure, gene expression profile of DM800 (lexA+); settings: MMC for 40 min
Experimental: as §1, §2

E. coli DM803 (lexAind) = assay: MMC exposure, gene expression profile of DM803 (lexAind); settings: MMC for 40 min
Experimental: as §1, §2

Compound	number of genes whose expression increased by a factor of more than 2 (E. coli MG1655; 1 mM IPTG for 15 min)	two-fold or greater repression of arrayed genes (E. coli MG1655; 1 mM IPTG for 15 min)	fold IPTG induction of b0956/ycbG (E. coli MG1655; gene b0956/ycbG (hydrogenase?), 1 mM IPTG, 15 min, LB, 37° C.)	fold IPTG induction of b1783/yeaG (E. coli MG1655; gene b1783/yeaG, 1 mM IPTG, 15 min, LB, 37° C.)	fold IPTG induction of b2324 (E. coli MG1655; gene b2324 (peptidase?), 1 mM IPTG, 15 min, LB, 37° C.)	fold IPTG induction of lacA (E. coli MG1655; gene lacA (thiogalactoside acyltransferase), 1 mM IPTG, 15 min, LB, 37° C.)	fold IPTG induction of lacY (E. coli MG1655; gene lacY (galactoside permease), 1 mM IPTG, 15 min, LB, 37° C.)	fold IPTG induction of lacZ (E. coli MG1655; gene lacZ (galactosidase), 1 mM IPTG, 15 min, LB, 37° C.)	fold IPTG induction of melA (E. coli MG1655; gene melA (galactosidase), 1 mM IPTG, 15 min, LB, 37° C.)	fold IPTG induction of uxaA (E. coli MG1655; gene uxaA (altronate hydrolase), 1 mM IPTG, 15 min, LB, 37° C.)	number of genes with expression elevated greater than 2 fold relative to the control (E. coli strain MG1655; 40 min exposure, MMC 250 ng/mL)	number of stress response genes induced more than 2 fold (E. coli strain MG1655; 40 min exposure, recN, dinI, sulA, lexA, recA, uvrA, dinD, priC, umuC, mioC, uvrB, ruvA, xseA)	SOS response (E. coli strain MG1655; cells harvested at 15 min post exposure, MMC 250 ng/mL)	induction of SOS responsive genes (E. coli DM800 (lexA+))	induction of dicB, dicC, sdiA, cheW, motA, cycA, fadL, chaC, codB and btuC (E. coli DM800 (lexA+))	induction of SOS responsive genes, including lexA (E. coli DM803 (lexAind))	induction of dicB, dicC, sdiA, cheW, motA, cycA, fadL, chaC, codB and btuC (E. coli DM803 (lexAind))
CC(C)S[C@@H]1O[C@H](CO)[C@H](O)[C@H](O)[C@H]1O [IPTG, isopropylthiogalactoside]	8 genes	not observed	2.5 fold	3.6 fold	5.3 fold	36 fold	14 fold	29 fold	2.9 fold	4.0 fold	–	–	–	–	–	–	–
CO[C@@]12[C@H](COC(N)=O)C3=C(C(=O)C(C)=C(N)C3=O)N1C[C@@H]1N[C@@H]12 [MMC, mitomycin C]	–	–	–	–	–	–	–	–	–	–	40 genes	13 genes	very little	greater than 2 fold	not induced	not induced	greater than 2 fold
